Measured values from the NIST ThermoML archive (doi:10.1016/j.fluid.2009.01.011).
± gives the expanded uncertainty stated by the source.

Assay: activity coefficient (dimensionless); of the first substance listed, at infinite dilution; xn = mol fraction of the nth substance listed
Settings: Liquid, Chromatography, x1 = 0

SMILES | activity coefficient (298.15 K) | activity coefficient (308.15 K) | activity coefficient (318.15 K) | activity coefficient (328.15 K) | activity coefficient (338.15 K) | activity coefficient (348.15 K) | activity coefficient (358.15 K) | activity coefficient (368.15 K)
C#CCCC [1-pentyne] + CCCC[N+]1(C)CCCC1.O=S(=O)([O-])C(F)(F)F | 2.59 ± 0.11 | 2.66 ± 0.12 | 2.74 ± 0.12 | 2.82 ± 0.12 | 2.88 ± 0.13 | 2.95 ± 0.13 | 3.01 ± 0.13 | 3.08 ± 0.14
CCCCCC [hexane] + CCCC[N+]1(C)CCCC1.O=S(=O)([O-])C(F)(F)F | 55.8 ± 2.5 | 50.6 ± 2.3 | 46.4 ± 2.1 | 42.2 ± 1.9 | 38.8 ± 1.7 | 35.8 ± 1.6 | 33.3 ± 1.5 | 31.3 ± 1.4
C1CCCCCC1 [cycloheptane] + CCCC[N+]1(C)CCCC1.O=S(=O)([O-])C(F)(F)F | 29.3 ± 1.3 | 27 ± 1.2 | 24.9 ± 1.1 | 23.1 ± 1 | 21.6 ± 1 | 20.1 ± 0.9 | 18.9 ± 0.8 | 17.9 ± 0.8
CCCCCCC [heptane] + CCCC[N+]1(C)CCCC1.O=S(=O)([O-])C(F)(F)F | 71.5 ± 3.2 | 64.7 ± 2.9 | 59.3 ± 2.6 | 54.2 ± 2.4 | 50.4 ± 2.2 | 46.7 ± 2.1 | 43.3 ± 1.9 | 40.8 ± 1.8
C1CCCC1 [cyclopentane] + CCCC[N+]1(C)CCCC1.O=S(=O)([O-])C(F)(F)F | 19.2 ± 0.9 | 17.4 ± 0.8 | 15.9 ± 0.7 | 14.6 ± 0.6 | 13.5 ± 0.6 | 12.6 ± 0.6 | 11.7 ± 0.5 | 11 ± 0.5
C=CCCCCCC [oct-1-ene] + CCCC[N+]1(C)CCCC1.O=S(=O)([O-])C(F)(F)F | 40.9 ± 1.8 | 38.4 ± 1.7 | 36.2 ± 1.6 | 34.3 ± 1.5 | 32.7 ± 1.5 | 31.2 ± 1.4 | 29.8 ± 1.3 | 28.6 ± 1.3
Cc1ccccc1C [1,2-dimethylbenzene] + CCCC[N+]1(C)CCCC1.O=S(=O)([O-])C(F)(F)F |  | 2.91 ± 0.13 | 2.93 ± 0.13 | 2.95 ± 0.13 | 2.97 ± 0.13 | 2.99 ± 0.13 | 3.01 ± 0.13 | 3.03 ± 0.13
CCCCCCCCCC [decane] + CCCC[N+]1(C)CCCC1.O=S(=O)([O-])C(F)(F)F | 195 ± 9 | 174 ± 8 | 157 ± 7 | 143 ± 6 | 130 ± 6 | 120 ± 5 | 110 ± 5 | 101 ± 5
Cc1ccccc1 [toluene] + CCCC[N+]1(C)CCCC1.O=S(=O)([O-])C(F)(F)F | 2.16 ± 0.09 | 2.19 ± 0.1 | 2.22 ± 0.1 | 2.25 ± 0.1 | 2.27 ± 0.1 | 2.3 ± 0.1 | 2.32 ± 0.1 | 2.35 ± 0.1
CCCCC [pentane] + CCCC[N+]1(C)CCCC1.O=S(=O)([O-])C(F)(F)F | 52.1 ± 2.3 | 46.1 ± 2.1 | 40.3 ± 1.8 | 35.9 ± 1.6 | 32.2 ± 1.4 | 28.9 ± 1.3 | 26.1 ± 1.2 | 
